Values after ≈ are worked out from the molar mass of the structure shown.
Key:
[1] = molecular target: T1, Activin receptor type-1-like (Homo sapiens, UniProt P37023); experiment: Inhibition of ALK1 (unknown origin)
[2] = molecular target: T1, Activin receptor type-1-like; experiment: Inhibition of ALK1 in HMEC-1 assessed as translocation of pSMAD1/5
[3] = Lipophilicity, log D of the compound at pH 7.4; type: physicochemical; settings: buffer
[4] = Solubility of the compound; type: physicochemical
[5] = molecular target: Proto-oncogene tyrosine-protein kinase Src (Homo sapiens) (UniProt P12931); experiment: Inhibition of Src (unknown origin) by HTRF assay
Sequence of Proto-oncogene tyrosine-protein kinase Src (Homo sapiens) (P12931 2-536 limits assumed): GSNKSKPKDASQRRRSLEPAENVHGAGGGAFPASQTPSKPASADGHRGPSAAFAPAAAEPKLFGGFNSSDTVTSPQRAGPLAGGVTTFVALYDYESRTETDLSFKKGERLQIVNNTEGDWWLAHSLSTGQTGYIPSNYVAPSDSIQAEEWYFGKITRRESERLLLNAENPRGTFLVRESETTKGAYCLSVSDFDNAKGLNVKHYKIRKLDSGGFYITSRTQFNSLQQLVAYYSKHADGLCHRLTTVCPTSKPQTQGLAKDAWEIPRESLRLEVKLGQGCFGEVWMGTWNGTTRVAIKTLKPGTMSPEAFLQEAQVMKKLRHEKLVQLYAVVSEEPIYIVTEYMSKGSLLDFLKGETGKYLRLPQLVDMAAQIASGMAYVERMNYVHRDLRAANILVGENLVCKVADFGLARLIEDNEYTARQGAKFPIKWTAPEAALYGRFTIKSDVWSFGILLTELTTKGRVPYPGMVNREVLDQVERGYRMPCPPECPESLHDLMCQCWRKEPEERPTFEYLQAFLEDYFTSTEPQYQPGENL

[6] = molecular target: TGF-beta receptor type-1 (Homo sapiens) (UniProt P36897); experiment: Inhibition of ALK5 in recombinant human MDA-MB-468 cells assessed as translocation of GFP-smad2; type: cell-based
Sequence of TGF-beta receptor type-1 (Homo sapiens) (P36897 whole entry): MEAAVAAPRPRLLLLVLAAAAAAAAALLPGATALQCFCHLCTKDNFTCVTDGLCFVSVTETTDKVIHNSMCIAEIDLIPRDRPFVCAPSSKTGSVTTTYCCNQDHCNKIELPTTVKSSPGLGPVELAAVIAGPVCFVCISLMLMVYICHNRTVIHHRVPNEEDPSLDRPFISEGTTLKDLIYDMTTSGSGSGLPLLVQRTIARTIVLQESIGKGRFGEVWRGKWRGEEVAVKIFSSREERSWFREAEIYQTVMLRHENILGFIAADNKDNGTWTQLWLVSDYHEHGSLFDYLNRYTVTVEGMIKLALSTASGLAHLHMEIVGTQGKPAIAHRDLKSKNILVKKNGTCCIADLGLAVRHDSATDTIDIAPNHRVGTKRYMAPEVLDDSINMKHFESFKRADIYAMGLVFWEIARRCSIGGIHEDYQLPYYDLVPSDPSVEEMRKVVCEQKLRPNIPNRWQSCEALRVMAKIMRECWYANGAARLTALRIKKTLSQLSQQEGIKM

[7] = molecular target: T1, Activin receptor type-1-like; experiment: Inhibition of human recombinant GST-tagged ALK1 expressed in baculovirus by FRET assay
[8] = molecular target: Activin receptor type-1 (Homo sapiens, UniProt Q04771); experiment: Inhibition of human recombinant GST-tagged ALK2 (amino acid 147 end) by FRET assay
[9] = molecular target: Bone morphogenetic protein receptor type-1A (Homo sapiens, UniProt P36894); experiment: Inhibition of human recombinant N-terminal GST-tagged ALK3 (187 to 432 residues) expressed in insect cells by FRET assay
[10] = molecular target: Activin receptor type-1B (Homo sapiens, UniProt P36896); experiment: Inhibition of human recombinant GST-tagged ALK4 expressed in baculovirus by FRET assay
[11] = molecular target: TGF-beta receptor type-1 (Homo sapiens, UniProt P36897); experiment: Inhibition of full length human N-terminal GST-tagged ALK5 expressed in baculovirus by FRET assay
Sequence of TGF-beta receptor type-1 (P36897 whole entry): as above

[12] = molecular target: Bone morphogenetic protein receptor type-1B (Homo sapiens, UniProt O00238); experiment: Inhibition of human recombinant N-terminal GST-tagged ALK6 (149 amino acids end) expressed in baculovirus infected Sf9 insect cells by FRET assay
Sequence of Bone morphogenetic protein receptor type-1B (O00238 whole entry): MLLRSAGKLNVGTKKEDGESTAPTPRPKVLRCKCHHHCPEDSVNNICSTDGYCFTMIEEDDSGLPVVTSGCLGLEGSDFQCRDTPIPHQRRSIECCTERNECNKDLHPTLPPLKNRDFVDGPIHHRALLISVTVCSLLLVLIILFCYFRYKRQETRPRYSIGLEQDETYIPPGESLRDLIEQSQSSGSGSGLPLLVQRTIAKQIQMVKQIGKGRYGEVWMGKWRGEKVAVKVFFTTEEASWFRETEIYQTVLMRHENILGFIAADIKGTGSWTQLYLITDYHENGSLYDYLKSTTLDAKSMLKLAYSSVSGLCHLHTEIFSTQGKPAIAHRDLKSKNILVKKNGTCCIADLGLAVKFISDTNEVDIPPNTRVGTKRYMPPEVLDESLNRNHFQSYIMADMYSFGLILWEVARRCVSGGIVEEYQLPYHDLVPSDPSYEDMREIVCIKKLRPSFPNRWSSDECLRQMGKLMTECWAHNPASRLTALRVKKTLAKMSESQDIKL

[13] = AUC in Han Wistar rat at 5 umol/kg; type: ADME, organism-based; settings: in vivo
[14] = Clearance in Han Wistar rat; type: ADME, organism-based; settings: in vivo
[15] = Oral bioavailability in Han Wistar rat; type: ADME, organism-based; settings: in vivo
[16] = Ratio of free drug level in nude mouse at 5 umol/kg administered as single dose after 24 hrs to IC50 for ALK1 in HMEC-1; type: ADME; settings: in vivo
[17] = test system: Mus musculus; experiment: Free Cmax in nude mouse at 50 mg/kg, po administered as single dose after 24 hrs; type: ADME, organism-based; settings: in vivo
[18] = test system: Mus musculus; experiment: Free drug concentration in nude mouse at 50 mg/kg, po administered as single dose after 24 hrs; type: ADME, organism-based; settings: in vivo
[19] = Fraction unbound in mouse plasma; type: ADME, cell-free
[20] = molecular target: Ephrin type-A receptor 2 (Homo sapiens) (UniProt P29317); experiment: Inhibition of human recombinant EPHA2 receptor (591 to 976 residues) expressed in insect Sf21 cells at 1 uM using poly(Glu4-Tyr1) as substrate after 30 mins
[21] = molecular target: Tyrosine-protein kinase Yes (Homo sapiens) (UniProt P07947); experiment: Inhibition of human recombinant full-length YES1 expressed in insect Sf21 cells at 1 uM using poly(Glu4-Tyr1) as substrate after 30 mins
[22] = molecular target: Proto-oncogene tyrosine-protein kinase Src (Homo sapiens) (UniProt P12931); experiment: Inhibition of human recombinant full-length Src expressed in insect Sf21 cells at 1 uM using KVEKIGEGTYGVVYK as substrate after 30 mins
[23] = molecular target: MAP kinase-interacting serine/threonine-protein kinase 1 (Homo sapiens) (UniProt Q9BUB5); experiment: Inhibition of human recombinant full-length MNK1 expressed in Escherichia coli at 1 uM using eIF4E as substrate after 30 mins
[24] = molecular target: Tyrosine-protein kinase BTK (Homo sapiens) (UniProt Q06187); experiment: Inhibition of BTK (unknown origin) at 1 uM
[25] = molecular target: Mitogen-activated protein kinase 8 (Homo sapiens) (UniProt P45983); experiment: Inhibition of JNK1 (unknown origin) at 1 uM after 30 mins
Sequence of Mitogen-activated protein kinase 8 (Homo sapiens) (P45983 whole entry): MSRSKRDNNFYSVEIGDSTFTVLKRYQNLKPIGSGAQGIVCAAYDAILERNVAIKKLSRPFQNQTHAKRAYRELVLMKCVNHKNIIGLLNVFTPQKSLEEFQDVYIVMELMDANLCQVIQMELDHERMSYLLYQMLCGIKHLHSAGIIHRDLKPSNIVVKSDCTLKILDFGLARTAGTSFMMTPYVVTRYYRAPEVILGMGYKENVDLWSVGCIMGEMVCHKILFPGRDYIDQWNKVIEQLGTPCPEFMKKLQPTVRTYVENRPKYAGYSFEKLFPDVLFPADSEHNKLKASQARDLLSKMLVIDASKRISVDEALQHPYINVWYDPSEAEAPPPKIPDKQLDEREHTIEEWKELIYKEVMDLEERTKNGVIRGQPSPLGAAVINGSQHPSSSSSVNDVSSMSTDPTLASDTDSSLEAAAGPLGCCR

[26] = molecular target: Cyclin-dependent kinase 2 (Homo sapiens) (UniProt P24941); experiment: Inhibition of human recombinant full-length CDK2 expressed in Escherichia coli at 1 uM after 30 mins
[27] = molecular target: Tyrosine-protein kinase CSK (Homo sapiens) (UniProt P41240); experiment: Inhibition of human recombinant full-length CSK at 1 uM after 30 mins
[28] = molecular target: Glycogen synthase kinase-3 beta (Homo sapiens) (UniProt P49841); experiment: Inhibition of human recombinant full-length GSK3beta at 1 uM after 30 mins
Sequence of Glycogen synthase kinase-3 beta (Homo sapiens) (P49841 whole entry, looked up, the tested form may be a part): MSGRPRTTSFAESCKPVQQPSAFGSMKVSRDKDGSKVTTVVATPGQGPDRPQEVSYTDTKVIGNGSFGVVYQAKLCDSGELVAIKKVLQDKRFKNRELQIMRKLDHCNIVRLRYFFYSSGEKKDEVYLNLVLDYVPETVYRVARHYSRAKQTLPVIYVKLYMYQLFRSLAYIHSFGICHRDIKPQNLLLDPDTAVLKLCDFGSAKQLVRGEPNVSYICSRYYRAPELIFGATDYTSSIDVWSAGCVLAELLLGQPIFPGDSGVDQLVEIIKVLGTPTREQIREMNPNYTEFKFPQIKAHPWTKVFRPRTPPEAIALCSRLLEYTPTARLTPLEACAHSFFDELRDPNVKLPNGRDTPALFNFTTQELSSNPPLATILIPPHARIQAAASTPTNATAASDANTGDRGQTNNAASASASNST

[29] = molecular target: Fibroblast growth factor receptor 1 (Homo sapiens) (UniProt P11362); experiment: Inhibition of human recombinant FGFR1 (400 to 820 residues) expressed in insect Sf21 cells at 1 uM using poly(Glu4-Tyr1) as substrate after 30 mins
[30] = molecular target: Mitogen-activated protein kinase 11 (Homo sapiens) (UniProt Q15759); experiment: Inhibition of human recombinant full-length p38beta at 1 uM after 30 mins
[31] = molecular target: Calcium/calmodulin-dependent protein kinase kinase 2 (Homo sapiens) (UniProt Q96RR4); experiment: Inhibition of human recombinant full-length CAMKKbeta expressed in Escherichia coli at 1 uM using AKPKGNKDYHLQTCCGSLAYRRR as substrate
Sequence of Calcium/calmodulin-dependent protein kinase kinase 2 (Homo sapiens) (Q96RR4 2-588 limits assumed): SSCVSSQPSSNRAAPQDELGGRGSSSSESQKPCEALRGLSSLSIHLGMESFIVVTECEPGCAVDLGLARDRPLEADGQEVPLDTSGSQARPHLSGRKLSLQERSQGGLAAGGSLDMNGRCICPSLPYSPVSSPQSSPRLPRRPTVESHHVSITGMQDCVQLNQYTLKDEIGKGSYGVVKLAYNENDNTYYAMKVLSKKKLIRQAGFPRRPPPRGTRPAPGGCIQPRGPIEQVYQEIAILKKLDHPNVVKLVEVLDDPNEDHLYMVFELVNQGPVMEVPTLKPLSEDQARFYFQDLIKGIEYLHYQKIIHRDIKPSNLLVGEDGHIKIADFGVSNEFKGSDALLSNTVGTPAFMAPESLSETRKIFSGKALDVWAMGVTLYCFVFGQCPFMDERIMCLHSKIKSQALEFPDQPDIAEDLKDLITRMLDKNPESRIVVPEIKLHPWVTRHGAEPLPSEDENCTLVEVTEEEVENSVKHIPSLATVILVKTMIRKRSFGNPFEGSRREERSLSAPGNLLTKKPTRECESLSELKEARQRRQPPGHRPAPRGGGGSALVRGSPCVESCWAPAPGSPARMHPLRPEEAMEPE

[32] = molecular target: Serine/threonine-protein kinase TBK1 (Homo sapiens) (UniProt Q9UHD2); experiment: Inhibition of human recombinant full-length TBK1 expressed in insect Sf21 cells at 1 uM using AKPKGNKDYHLQTCCGSLAYRRR as substrate
Sequence of Serine/threonine-protein kinase TBK1 (Homo sapiens) (Q9UHD2 whole entry): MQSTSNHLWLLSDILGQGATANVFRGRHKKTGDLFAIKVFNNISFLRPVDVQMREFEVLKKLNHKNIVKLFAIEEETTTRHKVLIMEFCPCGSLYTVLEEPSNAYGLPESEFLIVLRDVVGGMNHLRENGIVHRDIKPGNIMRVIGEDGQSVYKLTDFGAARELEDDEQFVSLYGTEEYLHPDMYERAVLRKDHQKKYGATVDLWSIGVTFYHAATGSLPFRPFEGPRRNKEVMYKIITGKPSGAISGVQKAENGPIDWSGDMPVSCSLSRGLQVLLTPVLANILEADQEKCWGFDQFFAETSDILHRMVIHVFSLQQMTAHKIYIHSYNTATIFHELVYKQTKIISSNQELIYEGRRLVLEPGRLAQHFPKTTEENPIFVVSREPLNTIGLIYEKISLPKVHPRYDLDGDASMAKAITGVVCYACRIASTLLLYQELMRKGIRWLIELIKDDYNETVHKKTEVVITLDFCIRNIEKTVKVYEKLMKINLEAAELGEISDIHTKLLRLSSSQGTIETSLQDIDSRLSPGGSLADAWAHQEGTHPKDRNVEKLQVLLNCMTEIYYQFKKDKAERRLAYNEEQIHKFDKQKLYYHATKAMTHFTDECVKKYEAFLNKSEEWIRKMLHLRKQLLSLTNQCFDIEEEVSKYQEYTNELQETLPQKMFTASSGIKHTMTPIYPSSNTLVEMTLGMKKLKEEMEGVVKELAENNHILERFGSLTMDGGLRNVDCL

[33] = molecular target: Vascular endothelial growth factor receptor 1 (Homo sapiens) (UniProt P17948); experiment: Inhibition of human recombinant full-length FLT1 at 1 uM after 30 mins
[34] = molecular target: Mitogen-activated protein kinase 13 (Homo sapiens) (UniProt O15264); experiment: Inhibition of MAPK13 (unknown origin) at 1 uM
[35] = molecular target: Inhibitor of nuclear factor kappa-B kinase subunit beta (Homo sapiens) (UniProt O14920); experiment: Inhibition of human recombinant full-length IKKbeta expressed in insect Sf21 cells at 1 uM using LDDRHDSGLDSMKDEEY as substrate after 30 mins
Sequence of Inhibitor of nuclear factor kappa-B kinase subunit beta (Homo sapiens) (O14920 whole entry): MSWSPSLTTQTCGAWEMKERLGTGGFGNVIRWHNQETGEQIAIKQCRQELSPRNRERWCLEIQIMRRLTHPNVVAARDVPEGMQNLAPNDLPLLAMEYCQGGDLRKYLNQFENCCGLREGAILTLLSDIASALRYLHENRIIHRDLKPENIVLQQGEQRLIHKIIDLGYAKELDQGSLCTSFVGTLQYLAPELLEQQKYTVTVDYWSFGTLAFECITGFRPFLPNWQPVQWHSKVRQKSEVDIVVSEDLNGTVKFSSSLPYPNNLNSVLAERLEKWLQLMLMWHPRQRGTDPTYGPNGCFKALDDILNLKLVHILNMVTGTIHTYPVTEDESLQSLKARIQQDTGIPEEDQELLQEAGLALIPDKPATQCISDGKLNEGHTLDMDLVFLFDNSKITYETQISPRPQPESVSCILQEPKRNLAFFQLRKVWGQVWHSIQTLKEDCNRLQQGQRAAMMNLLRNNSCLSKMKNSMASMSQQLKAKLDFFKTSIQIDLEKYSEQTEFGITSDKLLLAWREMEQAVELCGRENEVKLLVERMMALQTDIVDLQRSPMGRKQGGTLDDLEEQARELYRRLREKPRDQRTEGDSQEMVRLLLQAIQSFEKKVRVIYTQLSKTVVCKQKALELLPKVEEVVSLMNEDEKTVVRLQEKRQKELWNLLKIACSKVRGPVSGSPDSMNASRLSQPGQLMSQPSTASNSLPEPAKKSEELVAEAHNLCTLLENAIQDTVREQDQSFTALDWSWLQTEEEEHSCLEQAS

[36] = molecular target: Maternal embryonic leucine zipper kinase (Homo sapiens) (UniProt Q14680); experiment: Inhibition of human recombinant full-length MELK expressed in Escherichia coli at 1 uM using KKLNRTLSFAEPG as substrate after 30 mins

T1 sequence (P37023 whole entry): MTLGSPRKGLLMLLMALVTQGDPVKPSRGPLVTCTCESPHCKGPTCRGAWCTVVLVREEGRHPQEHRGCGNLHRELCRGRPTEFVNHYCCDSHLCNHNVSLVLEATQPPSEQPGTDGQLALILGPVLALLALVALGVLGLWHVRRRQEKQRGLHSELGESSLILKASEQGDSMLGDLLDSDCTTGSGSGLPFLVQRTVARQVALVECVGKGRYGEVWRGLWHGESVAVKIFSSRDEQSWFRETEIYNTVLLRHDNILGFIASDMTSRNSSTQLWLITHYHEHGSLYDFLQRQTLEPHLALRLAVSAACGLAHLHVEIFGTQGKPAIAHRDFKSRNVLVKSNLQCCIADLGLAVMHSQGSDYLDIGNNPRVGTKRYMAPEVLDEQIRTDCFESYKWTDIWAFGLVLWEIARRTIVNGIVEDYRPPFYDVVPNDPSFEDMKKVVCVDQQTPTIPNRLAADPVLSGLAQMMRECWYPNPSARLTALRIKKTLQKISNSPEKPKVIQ

O=C(Nc1cc(Nc2c(Cl)cnc3c2OCO3)ccn1)C1CC1
IC50 [1]: 4 nM
IC50 [2]: 45 nM
logD [3]: 2.7
solubility [4]: 63 µM (≈ 21 µg/mL)
INH [5]: 4.4 µM
INH [6]: 0.12 µM
IC50 [7]: 1.1 nM
IC50 [8]: 1.2 nM
IC50 [9]: 2.4 nM
IC50 [10]: 31 nM
IC50 [11]: 1.9 nM
IC50 [12]: 1300 nM
AUC [13]: 3.8 µM·h
clearance [14]: 8.4 mL/min/kg
bioavailability [15]: 38%
Ratio [16]: > 10
fCmax [17]: 31.7 µM
Drug uptake(free) [18]: 0.37 µM
fraction unbound [19]: 0.27
inhibition [20]: > 50%
inhibition [21]: > 50%
inhibition [22]: < 80%
inhibition [23]: < 80%
inhibition [24]: < 80%
inhibition [25]: < 80%
inhibition [26]: < 80%
inhibition [27]: < 80%
inhibition [28]: < 80%
inhibition [29]: < 80%
inhibition [30]: < 80%
inhibition [31]: < 80%
inhibition [32]: < 80%
inhibition [33]: < 80%
inhibition [34]: < 80%
inhibition [35]: < 80%
inhibition [36]: < 80%

From ChEMBL document CHEMBL3817795, “Identification and optimisation of a series of N-(4-anilino-2-pyridyl)acetamide activin receptor-like kinase 1 (ALK1) inhibitors” (Medchemcomm, 2016)
